One assay addresses T1, S1P2 (Homo sapiens, UniProt O95136).
T1 construct: expressed in transfected cells; host or cells: S1P2 CRE-bla CHO cells
The assay is described as follows: S1P2 agonist test, S1P2 CRE-bla CHO cells. The format is cell-based. The following applies: S1P2 CRE-BLA CHO cell line. How it is done:
(§1) Since AD2900 is a sphingolipid analogue with properties that resemble those of S1P, we intended to examine its ability to interact with the S1P receptors. To delineate whether AD2900 can function as an agonistic or antagonistic compound to any of the S1P receptors, we used a high-throughput screening cell-based assay, employing cell lines stably transfected with human S1P receptors 1, 2, 3, 4, or 5 [37]. In this experiment, a compound with an IC50 or EC50 value ≤10 μM for a certain S1P receptor is considered active as an antagonist or an agonist, respectively. The results illustrate that AD2900 acts as an antagonist to all S1P receptors (Table 1, Supplementary Figure 3). […] No agonist activation was evident.
(§2) The S1P1 agonist test and S1P2, S1P3, S1P4, and S1P5 agonist and antagonist tests were conducted as previously described using S1P1 CRE-bla CHO cells, S1P2 CRE-bla CHO cells, S1P3 NFAT-bla CHO cells, Tango™ S1P4 (EDG6)-bla U-2 OS cells, and Tango™ S1P5 ([…])-bla U-2 OS cells. The S1P1 antagonist assay was carried out according to the manufacturer’s instructions using a Tango™ S1P1 (EDG1)-bla U-2 OS Cell-Based Assay (Invitrogen, NY, USA).

In a further assay the target is T2, S1P3 (Homo sapiens, UniProt Q99500).
T2 construct: expressed in transfected cells; host or cells: S1P3 NFAT-bla CHO cells
The assay can be described thus: S1P3 agonist test, S1P3 NFAT-bla CHO cells. Type of assay: cell-based. To be noted: S1P3 NFAT-BLA CHO cell line. How it is done:
as §1, §2

Another assay deals with non-activated PBMCs. The assay can be described thus: Proliferation of non-activated PBMCs, [3H] thymidine. Type of assay: cell-based, human. The following applies: different concentrations.
Another assay relates to C57BL/6 mice. The assay can be described thus: T, B and NK cell populations in blood, spleen and lymph nodes, FACS. The format is in vivo, mouse. An excerpt:
S1P receptors are differentially expressed by distinct immune cell populations. Since AD2900 is an antagonist to all S1P receptors, we next evaluated its influence on the localization of different murine lymphocyte populations. To achieve this aim, we performed FACS analysis of the blood (Figure 5A), spleen (Figure 5B), and lymph node cells (Figure 5C) using antibodies against surface markers of T cells, B cells, and NK cells (TCR-β, CD19, and CD49b, respectively). […] The NK cell count was elevated by 55.7% (4.741 ± 0.8621 × 10^6 cells/ml) after a 7-day treatment with AD2900. […] The trend in the B-cell change was opposite to that in the T- and NK cell changes in the lymph nodes.
Figure 5 AD2900 treatment affects the distribution of T cells, B cells, and NK cells in blood, spleen, and peripheral lymph nodes C57BL/6 mice were orally administered with AD2900 or FTY720, as shown in Figure 4. Leukocytes from blood, spleen, and pLNs were collected and stained with TCR-β, CD19, and CD49b fluorescent antibodies and then analyzed by FACS analysis. The percentages of TCR-β+ T cells (left panel), CD19+ B cells (central panel), and CD49b+ NK cells (right panel) of the total leukocytes from blood (A), spleen (B), and pLNs (C) are shown. The results of T and B cells are from 2 days’ experiments. The results of NK cells are from 2 and 7 days’ experiments. All the significances are compared to untreated healthy mice. Results summarize three independent experiments. Results of Student’s t-test:*(P < 0.05, two-tailed test), ** (P < 0.01, two-tailed test), *** (P < 0.001, two-tailed test), **** (P < 0.0001, two-tailed test).
Murine lymphocytes: The phenotype of murine lymphocytes was analyzed by flow cytometry using anti-CD3e-FITC, anti-CD19-PB, anti-CCR7-APC, anti-CD44-FITC, anti-CD62L-APC, and anti-TCR-β-PB (Biolegend, CA, USA).
To eliminate the red blood cells, RBC lysis buffer (Beit Haemek, Israel) or BD FACS lysing solution (BD Biosciences, CA, USA) was added into murine blood and splenocyte samples. Flow cytometry was performed using the MACSQuant® Analyzer (Miltenyi Biotech, Germany), and the data were analyzed using FCS Express V3 software.
C57BL/6 female mice aged 7–8 weeks were obtained from Harlan Laboratories (Jerusalem, Israel). The animal study was conducted under appropriate conditions and was approved by the Institutional Animal Care and Use Committee of the Hebrew University of Jerusalem in accordance with the national laws and regulations for the protection of animals. AD2900 was dissolved in 10% BSA (MP Biomedicals, CA, USA) in DDW at 1 mg/ml and then further diluted in 200 ml water to get final concentrations at 1.8, 2.7, or 3.6 mg/l. AD2900 and FTY720 were supplied ad libitum to the mice for 2 days or 7 days. At the end of the experiment, blood was collected, and the mice were sacrificed and tissues (lymph nodes and spleen) were harvested.

Data on 1 compound can be found in PMC5581131, “The novel sphingosine-1-phosphate receptors antagonist AD2900 affects lymphocyte activation and inhibits T-cell entry into the lymph nodes” (Oncotarget, 2017).

Each structure is given as a SMILES string. pEC50: −log10 of the molar value.

T2 sequence (Q99500 whole entry): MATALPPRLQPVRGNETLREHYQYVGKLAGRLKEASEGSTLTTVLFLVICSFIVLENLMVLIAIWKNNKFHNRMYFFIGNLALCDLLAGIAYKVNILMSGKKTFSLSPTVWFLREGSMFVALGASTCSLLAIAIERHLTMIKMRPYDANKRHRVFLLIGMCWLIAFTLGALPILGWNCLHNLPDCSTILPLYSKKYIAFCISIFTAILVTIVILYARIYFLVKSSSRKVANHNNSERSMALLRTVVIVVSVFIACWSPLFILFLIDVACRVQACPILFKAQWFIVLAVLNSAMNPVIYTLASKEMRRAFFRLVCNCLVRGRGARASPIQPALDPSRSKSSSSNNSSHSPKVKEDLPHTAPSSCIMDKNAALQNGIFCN
T1 sequence (O95136 whole entry): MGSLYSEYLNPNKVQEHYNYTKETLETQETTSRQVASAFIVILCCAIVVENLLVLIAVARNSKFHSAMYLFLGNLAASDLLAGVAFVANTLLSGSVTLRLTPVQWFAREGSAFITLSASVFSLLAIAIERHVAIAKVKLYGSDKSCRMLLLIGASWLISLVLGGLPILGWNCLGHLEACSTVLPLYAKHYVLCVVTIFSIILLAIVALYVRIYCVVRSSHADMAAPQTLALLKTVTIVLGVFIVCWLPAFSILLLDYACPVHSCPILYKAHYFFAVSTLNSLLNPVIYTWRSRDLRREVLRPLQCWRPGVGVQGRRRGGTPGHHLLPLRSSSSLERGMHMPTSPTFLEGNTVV

Turning to `CCCCCCCCCCCCCCCCNC(CO)(CO)CO` [AD2900], the pEC50 (as a rule, the negative decadic logarithm of the EC50, by convention in mol/L) on S1P2 was less than 4.30. The same compound gave a pEC50 on S1P3 of less than 4.30. Also, the “influence on the proliferation of non-activated PBMCs” value in the assay on non-activated PBMCs was “no significant differences”. Also, in the assay with C57BL/6 mice (1.8 mg/l, 2-day treatment), the “T cells in the blood, value in parentheses” value is 0.7488 ± 0.1641 × 10^6 cells/ml and the “increase of average count of T cells in the blood” value came out at 81.9%. Besides, in the assay on C57BL/6 mice (2-day treatment), the “T cells in the lymph nodes, value in parentheses” value was 0.7411 ± 0.2217 × 10^5 cells/ml; the “T cells in the spleen, value in parentheses” value was 11.79 ± 3.64 × 10^6 cells/ml; the “decrease of T-cell average count in the lymph nodes” value is on record as 30%; the “increase of average count of T cells in the spleen” value is 96.7%. In the assay with C57BL/6 mice (7-day treatment), the “NK cells in the blood, value in parentheses” value is reported as 0.3987 ± 0.0706 × 10^6 cells/ml; the “NK cells in the lymph nodes, value in parentheses” value is recorded as 0.07852 ± 0.03572 × 10^5 cells/ml; the “NK cells in the spleen, value in parentheses” value is reported as 4.741 ± 0.8621 × 10^6 cells/ml; the “decrease of NK cell count in the lymph nodes” value was 20.8%. Further, in the assay on C57BL/6 mice (7-day treatment), the “elevation of NK cell count in the spleen” value amounted to 55.7% and the “increase of average NK cell count in the blood” value was found to be 52.1%. The “B cell count in all the organs” value with C57BL/6 mice (blood, spleen, lymph nodes) was “not significantly influenced”.
